A short description of data set [1]: Stability in aqueous media (FaSSIF, SGF, PBS). Type of data set: physicochemical. As to conditions: for FaSSIF (pH 6.5) % remaining 1 h / FaSSIF (pH 6.5) % remaining 6 h / FaSSIF (pH 6.5) % remaining 24 h: FaSSIF pH 6.5, 37° C.; for PBS (pH 7.4) % remaining 1 h / PBS (pH 7.4) % remaining 6 h / PBS (pH 7.4) % remaining 24 h: PBS pH 7.4, 37° C.; for SGF (pH 1.2) % remaining 1 h / SGF (pH 1.2) % remaining 6 h / SGF (pH 1.2) % remaining 24 h: SGF pH 1.2, 37° C. Here is the method: 10 μL of a 10 mM stock solution of the Examples were dissolved in 490 μL DMSO to afford […] working solution SGF (pH 1.2):
Dissolve 0.04 g NaCl and 0.064 g pepsin in 0.14 mL HCl and add sufficient water to 20 mL volume. The pH of the test solution was 1.20±0.05.
0.056% (w/v) lecithin, 0.161% (w/v) sodium taurocholate, 0.39% (w/v) monobasic potassium phosphate, 0.77% (w/v) potassium chloride, deionized H2O. The pH of the test solution was 6.5±0.05.
30 mL of 10×PBS (pH7.4) was added into a 50 mL flask and diluted with water. The solution was mixed well and adjusted to pH 7.4 with 1 N HCl.
2 μL of the 200 μL working solution of the Examples was added into 96-deep-well plates for TO, T60, T120, T360 and T1440 timepoints. Duplicates were prepared.
Stability studies were commenced by the addition of 198 μL of the required media (e.g. Simulated Gastric Fluid pH 1.2 [SGF], Simulated Fasted State Intestinal Fluid pH 6.5 [FaSSIF]) and Phosphate Buffered Saline pH 7.4 [PBS]) to each well except TO. The samples were incubated at 37° C. at 600 rpm for the appointed time. The samples at the corresponding timepoint were removed and immediately mixed with 400 μL of cold acetonitrile containing 200 ng/mL tolbutamide and labetalol (internal standard). The samples were centrifuged at 4000 rpm at 4° C. for 20 minutes. 60 μL of the supernatant was removed and mixed with 180 μL purified water and thoroughly mixed and analysed by LCMS (Shimadzu LC 30-AD, ACQUITY UPLC BEH Phenyl 1.7 um 2.1*50 mm Part No. 186002884, with mobile phase A: 0.1% formic acid in water, mobile phase B: 0.1% formic acid in acetonitrile). Formation of parent was also monitored as a metabolite.
Samples were analysed by Mass Spectrometry QTRAP 6500+.

Data set [2] is classed as in vitro ADME. As to conditions: rat plasma, 37° C. Here is the method:
5 μL of a 10 mM stock solution of the Examples were dissolved in 495 μL DMSO to afford 500 μL working solution Assay procedure:
98 μL plasma was added to each well of a 96-well reaction plate, using one plate per timepoint (Blank, TO, T10, T30, T60, and T120). 2 μL of working solution was added to each well of the reaction plates except Blank. Each plate was incubated at 37° C. for the indicated timepoint (0, 10, 30, 60, 120 minutes). At the end of incubation, 400 μL of stop solution (200 ng/mL tolbutamide and 200 ng/mL labetalol in 0.1% FA in ACN) was added to precipitate protein. The plates were then sealed and shaken for 20 minutes before centrifugation at 4000 rpm for 20 minutes. […] Formation of parent was also monitored as a metabolite.

A short description of data set [3]: Solubility in simulated fluids (kinetic solubility, 24 hours). Type of data set: physicochemical. As to conditions: thermodynamic from solid, 24 hour timepoint, room temperature. Here is the method:
A known quantity of the Examples and control compounds were weighed into a suitable vessel (whatman miniuniprep vials) and a known volume of the required media was added (e.g. Simulated Gastric Fluid pH 1.2 [SGF], Simulated Fasted State Intestinal Fluid pH 6.5 [FaSSIF] or Phosphate Buffered Saline pH 7.4 [PBS]). The samples were subjected to vortex mixing for 2 minutes followed by agitation on a shaker for 24 hours at room temperature at 800 rpm.

Converted amounts (≈) assume the structure as drawn.

As for `CC(C)OC(=O)c1ccc2c(c1)nc(OCCOCCCCNCc1cc(F)c(OC(F)(F)F)c(F)c1)c1ccncc12` [Example 2, isopropyl 5-(2-(4-((3,5-difluoro-4-(trifluoromethoxy)benzyl)amino)butoxy)ethoxy)benzo[c][2,6]naphthyridine-8-carboxylate], in data set [1], the “FaSSIF (pH 6.5) % remaining 1 h” value is recorded as 95.4%, the “FaSSIF (pH 6.5) % remaining 6 h” value turned out to be 80.5%, the “FaSSIF (pH 6.5) % remaining 24 h” value is recorded as 87.2% and the “PBS (pH 7.4) % remaining 1 h” value is 74.5%. Besides, in data set [1], the “PBS (pH 7.4) % remaining 6 h” value came out at 31.0%, the “PBS (pH 7.4) % remaining 24 h” value amounted to 11.5%, the “SGF (pH 1.2) % remaining 1 h” value worked out at 97.1% and the “SGF (pH 1.2) % remaining 6 h” value was determined as 57.9%. In data set [1], the “SGF (pH 1.2) % remaining 24 h” value turned out to be 19.6%.
Take `CN(C)CCOC(=O)c1ccc2c(c1)nc(OCCOCCCCNCc1cc(F)c(OC(F)(F)F)c(F)c1)c1ccncc12` [Example 3, 2-(dimethylamino)ethyl 5-(2-(4-((3,5-difluoro-4-(trifluoromethoxy)benzyl)amino)butoxy)ethoxy)benzo[c][2,6]naphthyridine-8-carboxylate]: in data set [1], the “FaSSIF (pH 6.5) % remaining 1 h” value came to 102.2%, the “FaSSIF (pH 6.5) % remaining 6 h” value is listed as 101.8%, the “FaSSIF (pH 6.5) % remaining 24 h” value is on record as 98.6% and the “PBS (pH 7.4) % remaining 1 h” value is on record as 71.8%. In addition, in data set [1], the “PBS (pH 7.4) % remaining 6 h” value amounted to 17.8%, the “PBS (pH 7.4) % remaining 24 h” value is reported as 1.3%, the “SGF (pH 1.2) % remaining 1 h” value is on record as 90.6% and the “SGF (pH 1.2) % remaining 6 h” value was determined as 76.1%. Further, the “SGF (pH 1.2) % remaining 24 h” value in data set [1] was 33.5%. For the same compound, in data set [2], the “% Example remaining 0 min” value is 100.0%, the “Example concentration (nM) 0 min” value came out at 1830.9 nM, the “% Example remaining 10 min” value is 0.1% and the “Example concentration (nM) 10 min” value is given as 2.7 nM.
Turning to `COC(=O)c1ccc2c(c1)nc(OCCOCCCCNCc1cc(F)c(OC(F)(F)F)c(F)c1)c1ccncc12` [Example 4, methyl 5-(2-(4-((3,5-difluoro-4-(trifluoromethoxy)benzyl)amino)butoxy)ethoxy)benzo[c][2,6]naphthyridine-8-carboxylate], in data set [1], the “FaSSIF (pH 6.5) % remaining 1 h” value is listed as 90.0%, the “FaSSIF (pH 6.5) % remaining 6 h” value was 86.6%, the “FaSSIF (pH 6.5) % remaining 24 h” value is 93.3% and the “PBS (pH 7.4) % remaining 1 h” value was determined as 70.3%. For the same compound, in data set [1], the “PBS (pH 7.4) % remaining 6 h” value was determined as 22.4%, the “PBS (pH 7.4) % remaining 24 h” value was found to be 7.9%, the “SGF (pH 1.2) % remaining 1 h” value was determined as 93.7% and the “SGF (pH 1.2) % remaining 6 h” value came out at 63.7%. In addition, the “SGF (pH 1.2) % remaining 24 h” value in data set [1] was determined as 16.5%.
Take `CC(C)C(=O)OCOC(=O)c1ccc2c(c1)nc(OCCOCCCCNCc1cc(F)c(OC(F)(F)F)c(F)c1)c1ccncc12` [Example 5, (isobutyryloxy)methyl 5-(2-(4-((3,5-difluoro-4-(trifluoromethoxy)benzyl)amino)butoxy)ethoxy)benzo[c][2,6]naphthyridine-8-carboxylate]: in data set [1], the “FaSSIF (pH 6.5) % remaining 1 h” value is 100.2%, the “FaSSIF (pH 6.5) % remaining 6 h” value turned out to be 97.5%, the “FaSSIF (pH 6.5) % remaining 24 h” value came out at 98.8% and the “PBS (pH 7.4) % remaining 1 h” value was 76.2%. For the same compound, in data set [1], the “PBS (pH 7.4) % remaining 6 h” value was 7.9%, the “PBS (pH 7.4) % remaining 24 h” value is 2.4%, the “SGF (pH 1.2) % remaining 1 h” value amounted to 87.0% and the “SGF (pH 1.2) % remaining 6 h” value was 55.5%. In addition, the “SGF (pH 1.2) % remaining 24 h” value in data set [1] came to 13.0%.
As for `CC(C)(C)C(=O)OCOC(=O)c1ccc2c(c1)nc(OCCOCCCCNCc1cc(F)c(OC(F)(F)F)c(F)c1)c1ccncc12` [Example 6, (pivaloyloxy)methyl 5-(2-(4-((3,5-difluoro-4-(trifluoromethoxy)benzyl)amino)butoxy)ethoxy)benzo[c][2,6]naphthyridine-8-carboxylate], in data set [1], the “FaSSIF (pH 6.5) % remaining 1 h” value was 112.8%, the “FaSSIF (pH 6.5) % remaining 6 h” value amounted to 97.0%, the “FaSSIF (pH 6.5) % remaining 24 h” value came out at 109.4% and the “PBS (pH 7.4) % remaining 1 h” value worked out at 85.2%. Moreover, in data set [1], the “PBS (pH 7.4) % remaining 6 h” value was 27.7%, the “PBS (pH 7.4) % remaining 24 h” value stood at 5.1%, the “SGF (pH 1.2) % remaining 1 h” value was determined as 88.8% and the “SGF (pH 1.2) % remaining 6 h” value is recorded as 59.8%. Besides, the “SGF (pH 1.2) % remaining 24 h” value in data set [1] was 20.0%. In data set [2], the “% Example remaining 0 min” value is reported as 100.0%, the “Example concentration (nM) 0 min” value is listed as 1779.1 nM, the “% Example remaining 10 min” value is recorded as 0.3% and the “Example concentration (nM) 10 min” value was 5.0 nM.
In the case of `Cc1oc(=O)oc1COC(=O)c1ccc2c(c1)nc(OCCOCCCCNCc1cc(F)c(OC(F)(F)F)c(F)c1)c1ccncc12` [Example 7, (5-methyl-2-oxo-1,3-dioxol-4-yl)methyl 5-(2-(4-((3,5-difluoro-4-(trifluoromethoxy)benzyl)amino)butoxy)ethoxy)benzo[c][2,6]naphthyridine-8-carboxylate], in data set [1], the “FaSSIF (pH 6.5) % remaining 1 h” value is given as 101.0%, the “FaSSIF (pH 6.5) % remaining 6 h” value was found to be 93.5%, the “FaSSIF (pH 6.5) % remaining 24 h” value came out at 89.1% and the “PBS (pH 7.4) % remaining 1 h” value was found to be 78.9%. In addition, in data set [1], the “PBS (pH 7.4) % remaining 6 h” value worked out at 16.7%, the “PBS (pH 7.4) % remaining 24 h” value is reported as 0.7%, the “SGF (pH 1.2) % remaining 1 h” value was 98.9% and the “SGF (pH 1.2) % remaining 6 h” value turned out to be 67.2%. In data set [1], the “SGF (pH 1.2) % remaining 24 h” value is 26.9%. Moreover, in data set [3] (simulated gastric fluid, SGF (pH 1.2)), the solubility (kinetic) (usually solubility judged after dilution from a stock solution rather than from solid) at 24 h was 0.0185 mg/mL (≈ 27.3 µM). In data set [3] (FaSSIF (pH 6.5)), this compound registered a solubility (kinetic) at 24 h of 0.0761 mg/mL (≈ 112 µM). Besides, in data set [2], the “% Example remaining 0 min” value is recorded as 100.0%, the “Example concentration (nM) 0 min” value is 1887.9 nM, the “% Example remaining 10 min” value was 0.1% and the “Example concentration (nM) 10 min” value is given as 1.2 nM.
Regarding `COC(=O)OCOC(=O)c1ccc2c(c1)nc(OCCOCCCCNCc1cc(F)c(OC(F)(F)F)c(F)c1)c1ccncc12` [Example 11, ((methoxycarbonyl)oxy)methyl 5-(2-(4-((3,5-difluoro-4-(trifluoromethoxy)benzyl)amino)butoxy)ethoxy)benzo[c][2,6]naphthyridine-8-carboxylate], in data set [1], the “FaSSIF (pH 6.5) % remaining 1 h” value was found to be 96.4%, the “FaSSIF (pH 6.5) % remaining 6 h” value came out at 97.5%, the “FaSSIF (pH 6.5) % remaining 24 h” value came to 105.9% and the “PBS (pH 7.4) % remaining 1 h” value is recorded as 81.2%. Besides, in data set [1], the “PBS (pH 7.4) % remaining 6 h” value was 29.3%, the “PBS (pH 7.4) % remaining 24 h” value is reported as 19.0%, the “SGF (pH 1.2) % remaining 1 h” value came out at 100.2% and the “SGF (pH 1.2) % remaining 6 h” value was determined as 66.3%. Also, the “SGF (pH 1.2) % remaining 24 h” value in data set [1] is 21.5%.
Consider `CC(C)(C)OC(=O)OCOC(=O)c1ccc2c(c1)nc(OCCOCCCCNCc1cc(F)c(OC(F)(F)F)c(F)c1)c1ccncc12` [Example 15, ((tert-butoxycarbonyl)oxy)methyl 5-(2-(4-((3,5-difluoro-4-(trifluoromethoxy)benzyl)amino)butoxy)ethoxy)benzo[c][2,6]naphthyridine-8-carboxylate], for which, in data set [1], the “FaSSIF (pH 6.5) % remaining 1 h” value came to 99.0%, the “FaSSIF (pH 6.5) % remaining 6 h” value is 97.9%, the “FaSSIF (pH 6.5) % remaining 24 h” value was determined as 98.6% and the “PBS (pH 7.4) % remaining 1 h” value came out at 100.3%. In data set [1], the “PBS (pH 7.4) % remaining 6 h” value was 49.7%, the “PBS (pH 7.4) % remaining 24 h” value is listed as 7.9%, the “SGF (pH 1.2) % remaining 1 h” value stood at 47.5% and the “SGF (pH 1.2) % remaining 6 h” value amounted to 3.8%. The “SGF (pH 1.2) % remaining 24 h” value in data set [1] was 1.8%.

These data come from patent US20260085069A1, “PRODRUGS” (Cambridge Enterprise Limited, priority 2022, published 2026).
